Laboratory results from patent publication US10035799B2, “COMT inhibiting methods and compositions” (Lieber Institute for Brain Development, priority 2015, dated 2018).

Molecular target: T1, catechol-O-methyltransferase (COMT) (Homo sapiens, UniProt P21964)
T1 construct: M51A variant) was expressed in HEK 293F cells
T1 sequence (P21964 52-271 limits assumed): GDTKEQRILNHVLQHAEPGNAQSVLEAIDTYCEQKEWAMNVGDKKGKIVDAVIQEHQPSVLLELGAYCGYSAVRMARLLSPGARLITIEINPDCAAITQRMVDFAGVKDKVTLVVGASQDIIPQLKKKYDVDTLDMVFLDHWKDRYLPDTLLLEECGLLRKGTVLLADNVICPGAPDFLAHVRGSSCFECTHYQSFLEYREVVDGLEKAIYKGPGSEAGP
Assay: COMT inhibition assay (HTRF, production of S-adenosyl homocysteine)
Type: biochemical
Conditions: recombinant human COMT, HTRF SAH production; MB-COMT or S-COMT not stated for Table 1
Description: The ability of compounds to inhibit the activity of catechol-O-methyltransferase (COMT) was determined by a homogenous time-resolved fluorescent (HTRF) assay (Lina et al, 2012; kit from CisBio, Codolet, France). This assay measures the production of S-adenosyl homocysteine (SAH) from the methyl donor S-adenosyl methionine. Recombinant human membrane bound COMT (MB-COMT; M51A variant) was expressed in HEK 293F cells using 293Fectin (Life Technologies, Gent, Belgium) and membranes prepared. The membranes were re-suspended in buffer (20 mM Tris/HCl pH 7; 10 mM glycerol; 2 mM MgCl2; 10 mM NaCl), aliquoted and stored at −80° C. Recombinant human soluble COMT(S-COMT), Va1158 variant and a hexa-His tag on the N-terminus, was purified using Ni-NTA chromatography, the His tag removed and stored in buffer as above.
For the human MB-COMT assay, membranes (62 ng/well) were incubated with SAM (20 μM final, CisBio) and dopamine (1.5 μM final; Sigma H8502, Diegem, Belgium) in the presence or absence of varying concentrations (typically 10 concentrations ranging from 10 μM to 0.1 nM) of compound for 40 min at 37° C. in 384-well microtitre plates (10 μl per well final volume). The reaction was terminated by the addition of acylation buffer and the amount of SAH produced determined according to manufacturer's instructions. Specific inhibition as that inhibited by a high concentration of tolcapone (10 μM; synthesised at UCB) and all experiments were validated using a control curve to tolcapone.
The human S-COMT assay was performed as above except that 0.15 ng enzyme/well was incubated with SAM (20 μM final) and dopamine (100 μM final) for 15 min at 37° C. and SAH production determined.
HTRF readings were performed using a Perkin Elmer Envision and results expressed as concentration of SAH produced using a standard curve. Results were analysed using non-linear regression to the 4-parameter logistic equation and pIC50 (−log 10 concentration of drug which inhibits enzyme activity/SAH production by 50%) determined.

SMILES | Activity range (pIC50, COMT inhibition)
O=S(=O)(c1ccc(O)c2ncccc12)C1CCN(c2ccc(F)cc2)CC1 [Example 37, 5-[[1-(4-fluorophenyl)-4-piperidyl]sulfonyl]quinolin-8-ol] | ++ (a pIC50 of from about great than 6 to 7)
O=S(=O)(c1ccc(O)c2ncccc12)N1CC(Oc2ccc(OC(F)(F)F)cc2)C1 [Example 99, 5-[3-[4-(trifluoromethoxy)phenoxy]azetidin-1-yl]sulfonylquinolin-8-ol] | ++ (a pIC50 of from about great than 6 to 7)
O=S(=O)(c1ccc(O)c2ncccc12)N1CCCCC1c1ccccc1 (stereo not drawn) [Example 61, 5-[(2-phenyl-1-piperidyl)sulfonyl]quinolin-8-ol] | ++ (a pIC50 of from about great than 6 to 7)
O=S(=O)(c1ccc(O)c2ncccc12)N1CCNCC1 [Example 104, 5-piperazin-1-ylsulfonylquinolin-8-ol] | + (a pIC50 of from about 4.5 to 6)
Cc1cc(S(=O)(=O)N2CCCC2)c2cccnc2c1O [Example 111, 7-methyl-5-pyrrolidin-1-ylsulfonyl-quinolin-8-ol] | +++ (a pIC50 of above about 7)
O=S(=O)(c1cc(F)c(O)c2ncccc12)N1CCN(Cc2ccc(F)cc2)CC1 [Example 122, 7-fluoro-5-[4-[(4-fluorophenyl)methyl]piperazin-1-yl]sulfonyl-quinolin-8-ol] | ++ (a pIC50 of from about great than 6 to 7)
Cc1cccc(N2CCN(S(=O)(=O)c3ccc(O)c4ncccc34)CC2)c1C [Example 100, 5-[4-(2,3-dimethylphenyl)piperazin-1-yl]sulfonylquinolin-8-ol] | ++ (a pIC50 of from about great than 6 to 7)
O=S(=O)(c1ccc(O)c2ncccc12)N1CCCC(c2ccccc2)C1 (stereo not drawn) [Example 102, 5-[(3-phenyl-1-piperidyl)sulfonyl]quinolin-8-ol] | +++ (a pIC50 of above about 7)
O=S(=O)(c1ccc(O)c2ncccc12)N1CCN(Cc2ccc(F)cc2)CC1 [Example 101, 5-[4-[(4-fluorophenyl)methyl]piperazin-1-yl]sulfonylquinolin-8-ol] | +++ (a pIC50 of above about 7)
C[C@H](c1ccccc1)N(C)S(=O)(=O)c1cc(Cl)c(O)c2ncccc12 [Example 117, 7-chloro-8-hydroxy-N-methyl-N-[(1R)-1-phenylethyl]quinoline-5-sulfonamide] | ++ (a pIC50 of from about great than 6 to 7)
Cc1ccc(S(=O)(=O)c2cc(Br)c(O)c3ncccc23)cc1 [Example 108, 7-bromo-5-(p-tolylsulfonyl)quinolin-8-ol] | ++ (a pIC50 of from about great than 6 to 7)
CC1CNCCN1S(=O)(=O)c1ccc(O)c2ncccc12 (stereo not drawn) [Example 106, 5-(2-methylpiperazin-1-yl)sulfonylquinolin-8-ol] | + (a pIC50 of from about 4.5 to 6)
O=S(=O)(c1ccc(O)c2ncccc12)N1CCCCC1 [Example 63, 5-(piperidin-1-yl)sulfonylquinolin-8-ol] | +++ (a pIC50 of above about 7)
O=S(=O)(c1cc(F)c(O)c2ncccc12)N1CCCC1 [Example 113, 7-fluoro-5-pyrrolidin-1-ylsulfonyl-quinolin-8-ol] | +++ (a pIC50 of above about 7)
O=C1NCN(c2ccccc2)C12CCN(S(=O)(=O)c1ccc(O)c3ncccc13)CC2 [Example 87, 8-[(8-hydroxy-5-quinolyl)sulfonyl]-1-phenyl-1,3,8-triazaspiro[4.5]decan-4-one] | +++ (a pIC50 of above about 7)
O=S(=O)(c1ccc(O)c2ncccc12)c1cccc2c1ncn2Cc1ccccc1Cl [Example 28, 5-[1-[(2-chlorophenyl)methyl]benzimidazol-4-yl]sulfonylquinolin-8-ol] | +++ (a pIC50 of above about 7)
O=S(=O)(c1ccc(O)c2ncccc12)C1CCCC1 [Example 31, 5-cyclopentylsulfonylquinolin-8-ol] | +++ (a pIC50 of above about 7)
O=S(=O)(c1cc(Br)c(O)c2ncccc12)N1CCN(Cc2ccc(F)cc2)CC1 [Example 121, 7-bromo-5-[4-[(4-fluorophenyl)methyl]piperazin-1-yl]sulfonyl-quinolin-8-ol] | + (a pIC50 of from about 4.5 to 6)
O=S(=O)(c1ccc(O)c2ncccc12)N1CCN(c2ccc(Cl)cn2)CC1 [Example 69, 5-[4-(5-chloro-2-pyridyl)piperazin-1-yl]sulfonylquinolin-8-ol] | ++ (a pIC50 of from about great than 6 to 7)
CCN(CC)S(=O)(=O)c1ccc(O)c2ncccc12 [Example 68, N,N-diethyl-8-hydroxy-quinoline-5-sulfonamide] | ++ (a pIC50 of from about great than 6 to 7)
Cc1ccc(CS(=O)(=O)c2ccc(O)c3ncccc23)cc1 [Example 32, 5-(p-tolylmethylsulfonyl)quinolin-8-ol] | ++ (a pIC50 of from about great than 6 to 7)
O=S(=O)(c1ccc(Cl)c(Cl)c1)c1ccc(O)c2ncccc12 [Example 15, 5-(3,4-dichlorophenyl)sulfonylquinolin-8-ol] | ++ (a pIC50 of from about great than 6 to 7)
C[C@@H]1CCCN1S(=O)(=O)c1cc(Cl)c(O)c2ncccc12 [Example 119, 7-chloro-5-[(2R)-2-methylpyrrolidin-1-yl]sulfonyl-quinolin-8-ol] | ++ (a pIC50 of from about great than 6 to 7)
CC(=O)C1(c2ccccc2)CCN(S(=O)(=O)c2ccc(O)c3ncccc23)CC1 [Example 86, 1-[1-[(8-hydroxy-5-quinolyl)sulfonyl]-4-phenyl-4-piperidyl]ethanone] | +++ (a pIC50 of above about 7)

Now from value to molecule:

Activity range (pIC50, COMT inhibition) | SMILES
+++ (a pIC50 of above about 7) | C[C@@H](c1ccccc1)N(C)S(=O)(=O)c1ccc(O)c2ncccc12 [Example 51, 8-hydroxy-N-methyl-N-[(1S)-1-phenylethyl]quinoline-5-sulfonamide]
+++ (a pIC50 of above about 7) | O=S(=O)(c1ccc(F)cc1)c1ccc(O)c2ncccc12 [Example 2, 5-(4-fluorophenyl)sulfonylquinolin-8-ol]
+ (a pIC50 of from about 4.5 to 6) | CCS(=O)(=O)c1ccc(O)c2ncccc12 [Example 33, 5-ethylsulfonylquinolin-8-ol]
+++ (a pIC50 of above about 7) | O=S(=O)(c1ccc(Cl)cc1)c1ccc(O)c2ncccc12 [Example 9, 5-(4-chlorophenyl)sulfonylquinolin-8-ol]
+++ (a pIC50 of above about 7) | O=S(=O)(c1ccc(O)c2ncccc12)N1CCc2ccccc2C1 [Example 40, 5-(3,4-dihydro-1H-isoquinolin-2-ylsulfonyl)quinolin-8-ol]
+++ (a pIC50 of above about 7) | O=S(=O)(c1ccc(O)c2ncccc12)N1Cc2ccccc2C1 [Example 47, 5-isoindolin-2-ylsulfonylquinolin-8-ol]
+++ (a pIC50 of above about 7) | Cc1ccc(S(=O)(=O)c2cc(Cl)c(O)c3ncccc23)cc1 [Example 109, 7-chloro-5-(p-tolylsulfonyl)quinolin-8-ol]
+++ (a pIC50 of above about 7) | CN(Cc1ccccc1)S(=O)(=O)c1ccc(O)c2ncccc12 [Example 45, N-benzyl-8-hydroxy-N-methylquinoline-5-sulfonamide]
+++ (a pIC50 of above about 7) | CN(Cc1ccc(F)cc1)S(=O)(=O)c1ccc(O)c2ncccc12 [Example 49, N-[(4-fluorophenyl)methyl]-8-hydroxy-N-methyl-quinoline-5-sulfonamide]
+++ (a pIC50 of above about 7) | O=S(=O)(c1ccccc1)c1ccc(O)c2ncccc12 [Example 22, 5-(benzenesulfonyl)quinolin-8-ol]
+++ (a pIC50 of above about 7) | Cc1cccc(S(=O)(=O)c2ccc(O)c3ncccc23)c1 [Example 7, 5-(m-tolylsulfonyl)quinolin-8-ol]
+++ (a pIC50 of above about 7) | O=S(=O)(c1cccc(-c2ccccc2)c1)c1ccc(O)c2ncccc12 [Example 6, 5-(3-phenylphenyl)sulfonylquinolin-8-ol]
